Where a SMILES comes first, the peptide text is derived from it. Bridges are numbered along the chain shown (N, C = ends). [ ]: non-standard residue; d: D form. Nle = CCCC[C@H](N)C(=O)O; Dap = NC[C@H](N)C(=O)O
How the values were obtained:
[1] = biological target: mMC1R (Mus musculus, UniProt Q01727); test: Functional bioassay, CRE/β-galactosidase reporter in HEK-293 cells stably expressing mMC1R; conditions: for pharmacology in words at mMC1R: slight agonist = some stimulatory response at 100 μM, not enough to determine an EC50
Experimental: (§1) 5,000 to 15,000 post transfection cells were plated into 96 well Primera plates (Falcon) and incubated overnight. […] The assay media was aspirated and 50 μL of lysis buffer (250 mM Tris-HCl pH=8.0 and 0.1% Triton X-100) was added. The plates were stored at −80° overnight.
(§2) The plates containing the cell lysates were thawed the following day. Aliquots of 10 μL were taken from each well and transferred to another 96-well plate for relative protein determination. To the cell lysate plates, 40 μL phosphate-buffered saline with 0.5% BSA was added to each well. Subsequently, 150 μL substrate buffer (60 mM sodium phosphate, 1 mM MgCl2, 10 mM KCl, 5 mM β-mercaptoethanol, 200 mg/100 mL ONPG) was added to each well and the plates were incubated at 37°.
(§3) The sample absorbance, OD405, was measured using a 96 well plate reader (Molecular Devices). The relative protein was determined by adding 200 μL 1:5 dilution Bio Rad G250 protein dye:water to the 10 μL cell lysate sample taken previously, and the OD595 was measured on a 96 well plate reader (Molecular Devices). Data points were normalized both to the relative protein content and non-receptor dependent forskolin stimulation.
(§4) For data analysis, EC50 and pA2 values represent the mean of duplicate experiments performed in triplet, quadruplet or more independent experiments.

[2] = biological target: T1, mMC3R (Mus musculus, UniProt P33033); test: Functional bioassay, CRE/β-galactosidase reporter in HEK-293 cells stably expressing mMC3R; conditions: for pharmacology in words at mMC3R: slight agonist = some stimulatory response at 100 μM, not enough to determine an EC50
Experimental: as §1, §2, §3, §4

[3] = biological target: T2, mMC4R (Mus musculus, UniProt P56450); test: Receptor binding study, competitive displacement of 125I-NDP-MSH at mMC4R; parameters: expressed in transfected cells; conditions: peptide at 10 μM
[4] = biological target: T2, mMC4R; test: Functional bioassay, CRE/β-galactosidase reporter in HEK-293 cells stably expressing mMC4R
Experimental: as §1, §2, §3, §4

[5] = biological target: T1, mMC3R; test: Receptor binding study, competitive displacement of 125I-NDP-MSH at mMC3R; parameters: expressed in transfected cells; conditions: peptide at 10 μM
[6] = biological target: mMC5R (Mus musculus, UniProt P41149); test: Functional bioassay, CRE/β-galactosidase reporter in HEK-293 cells stably expressing mMC5R
Experimental: as §1, §2, §3, §4

[7] = slight agonist = some stimulatory response at 100 μM, not enough to determine an EC50

T1 sequence (P33033 whole entry): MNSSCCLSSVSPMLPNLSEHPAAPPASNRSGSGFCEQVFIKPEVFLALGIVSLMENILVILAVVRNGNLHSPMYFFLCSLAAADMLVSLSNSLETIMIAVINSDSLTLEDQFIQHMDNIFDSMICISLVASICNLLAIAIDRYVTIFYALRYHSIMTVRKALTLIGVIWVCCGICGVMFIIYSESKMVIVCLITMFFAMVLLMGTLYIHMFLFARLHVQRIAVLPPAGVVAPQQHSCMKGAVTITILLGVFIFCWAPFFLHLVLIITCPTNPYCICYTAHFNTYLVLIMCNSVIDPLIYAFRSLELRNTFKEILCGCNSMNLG
Sequence of mMC1R (Q01727 whole entry): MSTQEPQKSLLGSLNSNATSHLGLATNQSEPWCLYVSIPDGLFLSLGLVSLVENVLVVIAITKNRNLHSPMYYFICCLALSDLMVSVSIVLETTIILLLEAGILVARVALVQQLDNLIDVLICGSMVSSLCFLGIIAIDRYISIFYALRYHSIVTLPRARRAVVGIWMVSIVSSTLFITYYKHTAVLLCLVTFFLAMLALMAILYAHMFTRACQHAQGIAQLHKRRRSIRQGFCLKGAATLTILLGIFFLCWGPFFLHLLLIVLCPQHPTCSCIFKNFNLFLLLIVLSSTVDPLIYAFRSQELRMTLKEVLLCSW
T2 sequence (P56450 whole entry): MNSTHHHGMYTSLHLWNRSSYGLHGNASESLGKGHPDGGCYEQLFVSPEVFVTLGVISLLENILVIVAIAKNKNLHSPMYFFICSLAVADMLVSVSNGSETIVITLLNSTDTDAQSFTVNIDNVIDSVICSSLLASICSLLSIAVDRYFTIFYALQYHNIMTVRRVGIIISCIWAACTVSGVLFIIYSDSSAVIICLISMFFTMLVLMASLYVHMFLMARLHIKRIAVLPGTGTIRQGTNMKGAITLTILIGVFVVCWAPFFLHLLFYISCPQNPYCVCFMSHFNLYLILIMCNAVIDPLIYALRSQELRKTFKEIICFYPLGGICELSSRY
Sequence of mMC5R (P41149 whole entry): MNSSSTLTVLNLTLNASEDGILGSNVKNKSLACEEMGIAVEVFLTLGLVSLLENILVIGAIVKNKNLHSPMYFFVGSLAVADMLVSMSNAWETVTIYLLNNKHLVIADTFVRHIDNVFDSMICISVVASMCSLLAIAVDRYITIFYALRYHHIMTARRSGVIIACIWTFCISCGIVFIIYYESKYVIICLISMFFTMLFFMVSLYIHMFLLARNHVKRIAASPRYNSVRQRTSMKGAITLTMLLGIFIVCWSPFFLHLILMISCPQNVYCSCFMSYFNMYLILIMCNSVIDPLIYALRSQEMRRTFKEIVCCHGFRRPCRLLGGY

Compound	specific binding at mMC3R (displacement of 125I-NDP-MSH) [5]	EC50 [4] [µM]	pharmacology in words at mMC1R [1]	EC50 [2] [µM]	EC50 [6] [µM]	EC50 [1] [µM]	also measured
CCCC[C@H](NC(=O)[C@H](CO)NC(=O)[C@H](Cc1ccc(O)cc1)NC(=O)[C@H](CO)NC(C)=O)C(=O)N[C@@H](CCC(=O)O)C(=O)N[C@@H](Cc1c[nH]cn1)C(=O)N[C@@H](CCCNC(=N)N)C(=O)N[C@H](Cc1ccccc1)C(=O)N[C@@H](Cc1ccccc1)C(=O)NCC(=O)N[C@@H](CCCCN)C(=O)N1CCC[C@H]1C(=O)N[C@H](C(N)=O)C(C)C [SEQ ID NO: 17, Ac-Ser-Tyr-Ser-Nle-Glu-His-Arg-DPhe-Phe-Gly-Lys-Pro-Val] (Ac-SYS[Nle]EHR[dF]FGKPV-NH2)	–	–	–	–	–	–	MC1R versus MC3R selective ([1]; agonist EC50 ratio): 850 fold; MC1R versus MC5R selective ([1]; agonist EC50 ratio): 62 fold; increase in mMC1R agonist potency ([1]; compared with SEQ ID NO:15): 8 fold; decreased mMC3R agonist potency ([2]; compared with SEQ ID NO:15): 13 fold; specific binding at mMC4R (displacement of 125I-NDP-MSH) [3]: ≤ 25%; pharmacology in words at mMC4R [4, 7]: Slight agonist
C[C@@H]1NC(=O)[C@H](CC(N)=O)NC(=O)[C@H](Cc2c[nH]c3ccccc23)NC(=O)[C@H](CCCNC(=N)N)NC(=O)[C@@H](Cc2ccccc2)NC(=O)[C@@H](NC(=O)[C@@H](N)Cc2ccc(O)cc2)CC(=O)NC[C@@H](C(=O)N[C@@H](Cc2ccc(O)cc2)C(N)=O)NC(=O)[C@H](Cc2ccccc2)NC1=O [SEQ ID NO: 7, Tyr-c[Asp-DPhe-Arg-Trp-Asn-Ala-Phe-Dpr]-Tyr] (H-YD[dF]RWNAF[Dap]Y-NH2; lactam 2-9)	≤ 25%	0.45	–	–	–	–	pharmacology in words at mMC3R [2]: Slight agonist; MC4R versus MC3R selective ([4]; agonist EC50 ratio): > 200 fold
CCCC[C@H](NC(=O)[C@H](CO)NC(=O)[C@H](Cc1ccc(O)cc1)NC(=O)[C@H](CO)NC(C)=O)C(=O)N[C@@H](CCC(=O)O)C(=O)N[C@@H](Cc1ccccc1)C(=O)N[C@@H](Cc1ccccc1)C(=O)N[C@@H](CCCNC(=N)N)C(=O)NCC(=O)N[C@@H](CCCCN)C(=O)N1CCC[C@H]1C(=O)N[C@H](C(N)=O)C(C)C [SEQ ID NO: 13] (Ac-SYS[Nle]EFFRGKPV-NH2)	–	> 100	Partial agonist	> 100	> 100	–	–
CCCC[C@H](NC(C)=O)C(=O)N[C@H]1CC(=O)NCCCC[C@@H](C(N)=O)NC(=O)[C@H](Cc2ccccc2)NC(=O)[C@H](Cc2ccccc2)NC(=O)[C@H](CCCNC(=N)N)NC(=O)[C@H](Cc2c[nH]cn2)NC1=O [SEQ ID NO: 20, Ac-Nle-c[Asp-His-Arg-Phe-Phe-Lys]] (Ac-[Nle]DHRFFK-NH2; lactam 2-7; C-terminus assumed)	–	> 100	Partial agonist	> 100	> 100	–	–
CCCC[C@H](NC(=O)[C@H](CO)NC(=O)[C@H](Cc1ccc(O)cc1)NC(=O)[C@H](CO)NC(C)=O)C(=O)N[C@@H](CCC(=O)O)C(=O)N[C@@H](Cc1c[nH]cn1)C(=O)N[C@@H](C)C(=O)N[C@@H](C)C(=O)N[C@@H](C)C(=O)NCC(=O)N[C@@H](CCCCN)C(=O)N1CCC[C@H]1C(=O)N[C@H](C(N)=O)C(C)C [SEQ ID NO: 12] (Ac-SYS[Nle]EHAAAGKPV-NH2)	≤ 25%	> 100	–	> 100	> 100	> 100	–
CCCC[C@H](NC(C)=O)C(=O)N[C@H]1CC(=O)NCCCC[C@@H](C(N)=O)NC(=O)[C@H](C)NC(=O)[C@H](C)NC(=O)[C@H](C)NC(=O)[C@H](Cc2c[nH]cn2)NC1=O [SEQ ID NO: 19, Ac-Nle-c[Asp-His-Ala-Ala-Ala-Lys]] (Ac-[Nle]DHAAAK-NH2; lactam 2-7)	–	> 100	–	> 100	> 100	> 100	–
CCCC[C@H](NC(C)=O)C(=O)N[C@H]1CC(=O)NCCCC[C@@H](C(N)=O)NC(=O)[C@H](Cc2ccccc2)NC(=O)[C@H](Cc2ccccc2)NC(=O)[C@@H](CCCNC(=N)N)NC(=O)[C@H](Cc2c[nH]cn2)NC1=O [SEQ ID NO: 21, Ac-Nle-c[Asp-His-DArg-Phe-Phe-Lys]] (Ac-[Nle]DH[dR]FFK-NH2; lactam 2-7)	–	> 100	–	> 100	> 100	> 100	–
C[C@@H]1NC(=O)[C@H](CC(N)=O)NC(=O)[C@H](Cc2ccccc2)NC(=O)[C@H](Cc2ccccc2)NC(=O)[C@H](CCCNC(=N)N)NC(=O)[C@H](Cc2c[nH]cn2)NC(=O)[C@@H](NC(=O)[C@@H](N)Cc2ccc(O)cc2)CC(=O)NC[C@@H](C(=O)N[C@@H](Cc2ccc(O)cc2)C(N)=O)NC(=O)[C@H](Cc2ccccc2)NC1=O [SEQ ID NO: 8] (H-YDHRFFNAF[Dap]Y-NH2; lactam 2-10)	less than 50%	–	–	–	–	–	decreased mMC1R agonist potency ([1]; compared with SEQ ID NO:3): 8 fold; pharmacology in words at mMC3R [2]: Slight agonist; specific binding at mMC4R (displacement of 125I-NDP-MSH) [3]: less than 50%
CCCC[C@H](NC(=O)[C@H](CO)NC(=O)[C@H](Cc1ccc(O)cc1)NC(=O)[C@H](CO)NC(C)=O)C(=O)N[C@@H](CCC(=O)O)C(=O)N[C@@H](Cc1c[nH]cn1)C(=O)N[C@H](CCCNC(=N)N)C(=O)N[C@@H](Cc1ccccc1)C(=O)N[C@@H](Cc1ccccc1)C(=O)NCC(=O)N[C@@H](CCCCN)C(=O)N1CCC[C@H]1C(=O)N[C@H](C(N)=O)C(C)C [SEQ ID NO: 16, Ac-Ser-Tyr-Ser-Nle-Glu-His-DArg-Phe-Phe-Gly-Lys-Pro-Val] (Ac-SYS[Nle]EH[dR]FFGKPV-NH2)	–	> 100	Slight agonist	> 100	–	–	pharmacology in words at mMC5R [6, 7]: Slight agonist

Reference: patent US7582610B2, “Melanocortin receptor templates, peptides and use thereof” (priority 2003, dated 2009)
